The text below walks through data of US7476650B2, “Enzyme inhibition” (Yale University, priority 1999, dated 2009).

SMILES strings stand for the structures. pIC50: −log10 of the molar value. Where two headings read alike, the source gives them in different places.

The subject of test [1] is bovine aortic endothelial (BAE) cells. In words: BAE cell proliferation ([methyl-3H]-thymidine incorporation). Format: cell-based. The protocol:
BAE cells were cultured at 7% CO2 and were grown in DMEM supplemented with 10% FBS, 1% penicillin/streptomycin (GIBCO), and 1 mM sodium pyruvate.
Approximately 1000 BAE cells were plated into each well of a 96-well culture plate. After an overnight incubation, different concentrations of proteasome inhibitors were added and incubation was continued for another five days. […] Subsequently, 74 kBq of [methyl-^3H]-thymidine was added to each well of the plate and the plate was incubated for another additional 4 hours. Cells were harvested using a Skatron Cell Harvester and incorporated radioactivity was quantified using liquid scintillation. Proliferation of BAE cells was assayed in triplicate in the presence of different concentrations of peptide epoxides.
Perturbation of the proteasome activity can result in inhibition of cell growth, and can further lead to cell death at elevated concentration of the proteasome inhibitors. This provides an excellent cell-based assay to assess the importance of each catalytic activity of the 20S proteasome in degradation of proteins involved in cell growth. We measured inhibition of proliferation of bovine aortic endothelial (BAE) cells with our α′,β′-epoxyketone-based inhibitors with varying degree of specificity for the PGPH activity.

In test [2] the target is T1, PGPH activity of purified bovine erythrocyte 20S proteasome (Bos taurus, UniProt Q3MHN0).
T1 construct: from tissue; host or cells: bovine erythrocytes (red blood cells)
In words: Enzyme kinetic assay, PGPH activity (Z-LLE-AMC). Type of test: biochemical. The conditions noted are these: for kinact/KI: pH 8, Table 4, inhibitor concentration range in parentheses, read-out: kassoc = kobs/[I] PGPH activity; for kobs/[I] for PGPH activity using Z-LLE-AMC: Examples 9 and 10; for selectivity: fold higher kobs/[I] for inhibition of the PGPH activity than the chymotrypsin-like activity: PGPH vs chymotrypsin-like; for kobs/[I] PGPH: Table 3; for kassoc = kobs/[I] PGPH activity: Table 2, inhibitor concentration range in the line below; for selectivity for the PGPH activity: in words, data not shown for Glu compounds. The protocol:
We investigated the potency of inhibitors of various length. Mono-, di-,tri- and tetraleucine α′,β′-epoxides were ranked by determination of the kobs/[I] values for inhibition of the chymotrypsin-like, trypsin-like, and PGPH activities of purified bovine erythrocyte 20S proteasome. Enzyme kinetic assays were performed as described in Example 2.
(§1) Purified bovine erythrocyte proteasome was enzymatically assayed using a variety of different substrates and inhibitors. In order to evaluate the rates of proteolytic inactivation by inhibitors, kassociation (kobs/[I]) values were determined using fluorogenic peptide substrates over a range of inhibitor concentrations.

The target in test [3] is T2, trypsin-like activity of purified bovine erythrocyte 20S proteasome (Bos taurus, UniProt Q2TBP0).
T2 construct: from tissue; host or cells: bovine erythrocytes (red blood cells)
In words: Enzyme kinetic assay, trypsin-like activity (Boc-LRR-AMC). Type of test: biochemical. The settings on record: for kinact/KI: pH 8, Table 4, inhibitor concentration range in parentheses, read-out: kassoc = kobs/[I] Trypsin-like activity; for kobs/[I] for tryptic-like activity using Boc-LRR-AMC: Examples 9 and 10; for inhibition of the trypsin-like activity of the proteasome: in words; for kassoc = kobs/[I] Trypsin-like activity: Table 2, inhibitor concentration range in the line below; for kobs/[I] Trypsin-like: Table 3.
Source text: (§2) We investigated the potency of inhibitors of various length. Mono-, di-,tri- and tetraleucine α′,β′-epoxides were ranked by determination of the kobs/[I] values for inhibition of the chymotrypsin-like, trypsin-like, and PGPH activities of purified bovine erythrocyte 20S proteasome.
as §1

The subject of test [4] is mice, DNFB applied to the ear. Description: DNFB ear inflammation (irritant sensitivity response). Format: in vivo. The settings on record: single dose one hour before DNFB, 24 hours. The protocol: Ear thickness was measured at 0 and 24 hours after DNFB application.
In test [5] the target is T3, chymotrypsin-like activity of purified bovine erythrocyte 20S proteasome (Bos taurus, UniProt Q32KL2).
T3 construct: from tissue; host or cells: bovine erythrocytes (red blood cells)
In words: Enzyme kinetic assay, chymotrypsin-like activity (Suc-LLVY-AMC). Type of test: biochemical. The conditions noted are these: for kobs/[I] for chymotryptic-like activity using Suc-LLVY-AMC: Examples 9 and 10, in M-1s-1; for kassoc = kobs/[I] (chymotrypsin-like activity inhibition): Table 5; for kobs/[I] Chymotrypsin-like: Table 3; for kassoc = kobs/[I] Chymotrypsin-like activity: Table 2, inhibitor concentration range in the line below.
Source text: as §2, §1

Another test concerns the target cathepsin B (Homo sapiens, UniProt P07858). Description: Cathepsin B inhibition assay.
Where [6] appears, read: pH 8, Table 4, inhibitor concentration range in parentheses, read-out: kassoc = kobs/[I] Chymotrypsin-like activity.
[7] abbreviates: Table 6, PGPH-directed inhibitors.

As a reminder, the pIC50 is the IC50 on a negative log10 scale, so that one unit is a factor of ten. Consider `CC(=O)N[C@@H](CCc1ccccc1)C(=O)N[C@@H](CC(C)C)C(=O)N[C@@H](Cc1ccccc1)C(=O)N[C@@H](CC(C)C)C(=O)[C@@]1(C)CO1` [compound 16], for which the pIC50 in test [1] (Bos taurus, 120 h, Table 5, five days incubation) is 7.70. Moreover, the kinact/KI was determined as 21 M⁻¹ s⁻¹ in test [2]; 7.1 M⁻¹ s⁻¹ in test [3]; 183000 M⁻¹ s⁻¹ in test [5] (pH 8, read-out: kobs/[I] for chymotryptic-like activity using Suc-LLVY-AMC); 166000 M⁻¹ s⁻¹ in test [5] (setting [6]). The entries for the “inhibition of ear inflammation / ear swelling over vehicle-treated controls” value in test [4] (high dose 2.0 mg/kg (3.6 μmol/kg)) and in test [4] (low dose 0.32 mg/kg (0.58 μmol/kg)) were 12 fold and “reducing ear swelling by the same amount as epoxomicin”, respectively.
The compound `CC(=O)N[C@@H](C)C(=O)N[C@@H](CC(C)C)C(=O)N[C@@H](CC(C)C)C(=O)N[C@@H](CC(C)C)C(=O)[C@@]1(C)CO1` [Ac-ALLL-epoxide] had a pIC50 in test [1] (Table 5, five days incubation) of 7.08. Also, the “kobs/[I] for PGPH activity using Z-LLE-AMC” value (shortened to “kobs/[I] for PGPH activity”) in test [2] was 220. In test [3], this compound showed a kobs/[I] for tryptic-like activity using Boc-LRR-AMC of 3.8 M⁻¹ s⁻¹. Further, in test [5], the “kobs/[I] for chymotryptic-like activity using Suc-LLVY-AMC” value (from here on “kobs/[I] for chymotryptic-like activity”) is 5,300 and the “kassoc = kobs/[I] (chymotrypsin-like activity inhibition)” value amounted to 5300 M⁻¹ s⁻¹.
`CC(=O)NCC(=O)N1CCC[C@H]1C(=O)N[C@@H](Cc1ccccc1)C(=O)N[C@@H](CC(C)C)C(=O)C1(C)CO1` (stereo partly shown) [Ac-GPFL-Ex] had a pIC50 in test [1] (setting [7]) of 4.24. For the same compound, in test [2], the “selectivity: fold higher kobs/[I] for inhibition of the PGPH activity than the chymotrypsin-like activity” value is on record as 35 fold and the “kobs/[I] PGPH” value is 190 ± 10 M⁻¹ s⁻¹. Besides, the “inhibition of the trypsin-like activity of the proteasome” value (from here on “inhibition … of the proteasome”) in test [3] was “no inhibition”. In addition, the “kobs/[I] Chymotrypsin-like” value in test [5] amounted to 5 ± 1 M⁻¹ s⁻¹.
Regarding `CC(C)C[C@@H](/C=C/S(C)(=O)=O)NC(=O)[C@H](CC(C)C)NC(=O)[C@H](CC(C)C)NC(=O)Cc1cc(I)c(O)c([N+](=O)[O-])c1` [NLVS, reference compound], the “kassoc = kobs/[I] PGPH activity” value in test [2] stood at 6.4 ± 2.3 M⁻¹ s⁻¹. For the same compound, the “kassoc = kobs/[I] Trypsin-like activity” value in test [3] stood at 5.3 ± 2.8 M⁻¹ s⁻¹. Also, in test [5], the “kassoc = kobs/[I] Chymotrypsin-like activity” value is 6790 ± 919 M⁻¹ s⁻¹. Besides, the “inhibition of cathepsin B enzymatic activity” value against cathepsin B (at 10 μM) is reported as “significantly inhibited”.
In test [1] (Table 5, five days incubation), `CC(=O)N[C@@H](CC(C)C)C(=O)N[C@@H](CC(C)C)C(=O)N[C@@H](C)C(=O)N[C@@H](CC(C)C)C(=O)[C@@]1(C)CO1` [Ac-LLAL-epoxide] had a pIC50 of 7.47. In test [2], the “kobs/[I] for PGPH activity” value came out at 20. In test [3], this compound returned a kobs/[I] for tryptic-like activity using Boc-LRR-AMC of 4.1 M⁻¹ s⁻¹. In test [5], the “kobs/[I] for chymotryptic-like activity” value was 16,000 and the “kassoc = kobs/[I] (chymotrypsin-like activity inhibition)” value was 16,000 M^−1 s^−1.
For the compound `CC(C)CCCCC(=O)N1CCC[C@H]1C(=O)N[C@@H](Cc1ccccc1)C(=O)N[C@@H](CC(C)C)C(=O)[C@@]1(C)CO1` [Isooctanioc-PFL-Ex], the pIC50 in test [1] (setting [7]) is 6.22. Besides, in test [2], the “kobs/[I] PGPH” value was found to be 194 ± 4 M⁻¹ s⁻¹ and the “selectivity for the PGPH activity” value was “no selectivity”. Further, the “inhibition … of the proteasome” value in test [3] is on record as “no inhibition”. Also, the “kobs/[I] Chymotrypsin-like” value in test [5] was found to be 190 ± 60 M⁻¹ s⁻¹.
In the case of `CCCC[C@H](NC(C)=O)C(=O)N1CCC[C@H]1C(=O)N[C@@H](Cc1ccccc1)C(=O)N[C@@H](CC(C)C)C(=O)[C@@]1(C)CO1` [Ac-NorLPFL-Ex], the pIC50 in test [1] (setting [7]) is 4.28. Besides, in test [2], the “selectivity: fold higher kobs/[I] for inhibition of the PGPH activity than the chymotrypsin-like activity” value came out at 60 fold and the “kobs/[I] PGPH” value stood at 115 ± 15 M⁻¹ s⁻¹. Further, the “inhibition … of the proteasome” value in test [3] is recorded as “no inhibition”. For the same compound, in test [5], the “kobs/[I] Chymotrypsin-like” value is 1.9 ± 0.6 M⁻¹ s⁻¹.
Compound `CC(=O)N[C@@H](CC(C)C)C(=O)N[C@@H](CC(C)C)C(=O)N[C@@H](Cc1ccccc1)C(=O)N[C@@H](CC(C)C)C(=O)[C@@]1(C)CO1` [Ac-LLFL-epoxide] gave a pIC50 in test [1] (Table 5, five days incubation) of 8.15. Moreover, the “kobs/[I] for PGPH activity” value in test [2] is recorded as “not measurable”. For the same compound, the “kobs/[I] for tryptic-like activity using Boc-LRR-AMC” value in test [3] is given as “not measurable”. In test [5], the “kobs/[I] for chymotryptic-like activity” value is 54,000 and the “kassoc = kobs/[I] (chymotrypsin-like activity inhibition)” value was 54,000 M^−1 s^−1.
As for `CC(C)[C@H](O)[C@@]12NC(=O)[C@H](C)[C@@H]1OC2=O` [drawing 17, reference compound], the kinact/KI in test [2] is 47 M⁻¹ s⁻¹; in test [3], 68 M⁻¹ s⁻¹; in test [5] (setting [6]), 7400 M⁻¹ s⁻¹.
`CC(=O)N[C@@H](CC(C)C)C(=O)N[C@@H](C)C(=O)N[C@@H](CC(C)C)C(=O)N[C@@H](CC(C)C)C(=O)[C@@]1(C)CO1` [Ac-LALL-epoxide] showed a pIC50 in test [1] (Table 5, five days incubation) of 6.15. For the same compound, in test [2], the “kobs/[I] for PGPH activity” value was 130. In test [3], this compound showed a kobs/[I] for tryptic-like activity using Boc-LRR-AMC of 2 M⁻¹ s⁻¹. For the same compound, in test [5], the “kobs/[I] for chymotryptic-like activity” value is listed as 1,300 and the “kassoc = kobs/[I] (chymotrypsin-like activity inhibition)” value amounted to 1300 M⁻¹ s⁻¹.
For `CC(C)[C@H](O)[C@@]12NC(=O)[C@H](C)[C@@H]1OC2=O` [clasto-lactacystin β lactone, clasto-lactacystin β-lactone, reference compound], the “kassoc = kobs/[I] PGPH activity” value in test [2] was found to be 37 ± 4.7 M⁻¹ s⁻¹. For the same compound, the “kassoc = kobs/[I] Trypsin-like activity” value in test [3] worked out at 253 ± 41 M⁻¹ s⁻¹. Besides, the “kassoc = kobs/[I] Chymotrypsin-like activity” value in test [5] amounted to 8530 ± 280 M⁻¹ s⁻¹. Also, the “inhibition of cathepsin B enzymatic activity” value against cathepsin B (at 50 μM) is “significantly inhibited”.
As for `CC(=O)N[C@@H](C)C(=O)N[C@H](C(=O)N[C@@H](CC(C)C)C(=O)[C@@]1(C)CO1)C(C)C` [Ac-AVL-Ex], the “kobs/[I] PGPH” value in test [2] came to 12.7 ± 1.3 M⁻¹ s⁻¹. Also, in test [3], the “kobs/[I] Trypsin-like” value is 1.8 ± 0.1 M⁻¹ s⁻¹. Further, the “kobs/[I] Chymotrypsin-like” value in test [5] is 10.8 ± 0.2 M⁻¹ s⁻¹.
Consider `CC(C)C[C@H](NC(=O)[C@H](Cc1ccccc1)NC(=O)[C@@H]1CCCN1C(=O)c1ccc(N(C)C)cc1)C(=O)[C@@]1(C)CO1` [N-dimethylaminobenzoyl-PFL-EX], for which the negative logarithm of the IC50 (pIC50) in test [1] (setting [7]) is 6.40. For the same compound, in test [2], the “kobs/[I] PGPH” value was found to be 150 ± 40 M⁻¹ s⁻¹ and the “selectivity for the PGPH activity” value is reported as “no selectivity”. Also, the “inhibition … of the proteasome” value in test [3] is listed as “no inhibition”. The “kobs/[I] Chymotrypsin-like” value in test [5] was determined as 220 ± 70 M⁻¹ s⁻¹.
`CC(C)C[C@H](NC(=O)[C@H](Cc1ccccc1)NC(=O)[C@@H]1CCCN1C(=O)c1cnccn1)C(=O)C1(C)CO1` (stereo partly shown) [Pyrazinecarbonyl-PFL-Ex]: the pIC50 in test [1] (setting [7]) was 6.40. Moreover, the “kobs/[I] PGPH” value in test [2] turned out to be 23 ± 3 M⁻¹ s⁻¹. The “kobs/[I] Trypsin-like” value in test [3] worked out at 3.7 ± 1.1 M⁻¹ s⁻¹. In addition, the “kobs/[I] Chymotrypsin-like” value in test [5] was 520 ± 40 M⁻¹ s⁻¹.
Take `CC(=O)N[C@@H](CC(C)C)C(=O)N[C@@H](Cc1ccccc1)C(=O)N[C@@H](CC(C)C)C(=O)N[C@@H](CC(C)C)C(=O)[C@@]1(C)CO1` [Ac-LFLL-epoxide]: the pIC50 in test [1] (Table 5, five days incubation) was 7.80. In test [2], the “kobs/[I] for PGPH activity” value is on record as “not measurable”. Besides, the “kobs/[I] for tryptic-like activity using Boc-LRR-AMC” value in test [3] is “not measurable”. Further, in test [5], the “kobs/[I] for chymotryptic-like activity” value is 8,500 and the “kassoc = kobs/[I] (chymotrypsin-like activity inhibition)” value was found to be 8500 M⁻¹ s⁻¹.
